According to the OPERA property sets (Mansouri et al. 2018):

details: not given

SMILES | boiling point [°C] | log10 Henry constant (atm·m³/mol) | log10 Koa | log10 vapour pressure (mmHg) | melting point [°C] | ready biodegradability | log10 biodegradation half-life (days) | log10 Koc (L/kg)
C1CCOC1 | 65 | -4.15 | 2.86 | 2.21 | -108 | readily biodegradable |  | 
O=C(C=Cc1ccccc1)c1ccccc1O |  |  |  |  | 90 |  |  | 
CC(C)CC(=O)OCC(COC(=O)CC(C)C)OC(=O)CC(C)C | 332 |  |  |  |  |  |  | 
COC(=O)c1ccccc1C(=O)c1ccccc1 | 351 |  |  |  | 52 | not readily biodegradable |  | 
O=[N+]([O-])c1ccc(C2CCCCC2)cc1 |  |  |  |  | 58.5 |  |  | 
ClCCCCBr | 175 |  |  |  |  |  |  | 
Cc1ccc(C(=O)O)o1 |  |  |  |  | 110 |  |  | 
CCOCC(C)O (centres undefined) | 131 |  |  |  |  |  |  | 
CCC1(C2=CCCCCC2)C(=O)NC(=O)NC1=O |  |  |  |  | 174 |  |  | 
Cc1cccc2c1Cc1ccccc1-2 |  |  |  | -3.52 | 85 |  |  | 
CCOC(=O)[C@@H](N)CS.Cl |  |  |  |  | 124 |  |  | 
Nc1c(Br)cc2c(c1Br)Cc1ccccc1-2 |  |  |  |  |  | not readily biodegradable |  | 
C[C@@H]1CCCC[C@@H]1C (racemic) |  |  |  |  | -70 |  |  | 
O=[N+]([O-])c1ccc(O[C@@H]2O[C@H](CO)[C@H](O)[C@H](O)[C@H]2O)cc1 |  |  |  |  | 189 |  |  | 
CC(C)(C)c1cc(C(C)(C)C)cc(C(C)(C)C)c1 |  |  |  |  |  | not readily biodegradable |  | 
COC(=O)C(Cl)(Cl)Cl | 154 |  |  |  | -17.5 |  |  | 
C=CCCC#N | 140 |  |  |  |  |  |  | 
CCCC(C)C(C)C(C)C (centres undefined) | 161 |  |  |  |  |  |  | 
CC[N+](CC)(CC)CCC(O)(c1ccccc1)C1CCCCC1.[I-] (centres undefined) |  |  |  |  | 182 |  |  | 
CCCCCCN1CC(C(=O)O)CC1=O (centres undefined) |  |  |  |  | 42.5 |  |  | 
CCCCC1CCC(OC(=O)C2CCC(CCCC)CC2)CC1 (centres undefined) |  |  |  |  |  | readily biodegradable |  | 
C1CCC2OC2C1 (centres undefined) | 132 |  |  |  |  |  |  | 

SMILES | boiling point [°C] | log10 Henry constant (atm·m³/mol) | log10 Koa | log10 vapour pressure (mmHg) | melting point [°C] | ready biodegradability | log10 biodegradation half-life (days) | log10 Koc (L/kg)
CCOC(=O)CC | 99.1 |  | 3.15 | 1.55 | -73.9 |  |  | 
Nc1nnc(-c2ccc([N+](=O)[O-])o2)s1 |  |  |  |  | 280 |  |  | 
Cc1cc2ccccc2c2ccc3ccccc3c12 |  |  |  |  | 118 |  |  | 
CC(C)(C)CO | 114 |  |  | 1.2 | 52.5 |  |  | 
OC[C@@H]1CCCN2CCCC[C@H]12 | 270 |  |  |  | 70 |  |  | 
CCCCCCCCCOCCCCCCCCC |  |  |  | -4.28 |  |  |  | 
CCC(C)C(C)C (centres undefined) | 89.7 |  |  | 1.84 |  |  | 0.845 | 
Clc1cc(Cl)c2c(oc3c(Cl)cccc32)c1Cl |  |  |  |  | 177 |  |  | 
C=C(C)Cl | 22.6 |  |  | 2.91 | -137 |  |  | 
CC(C)(Oc1ccc(Cl)cc1)C(=O)O |  |  |  |  | 118 |  |  | 
BrCCCCOc1ccccc1 |  |  |  |  | 41 |  |  | 
CCCCCCCCOC(=O)CCCC | 262 |  |  |  | -42.3 |  |  | 
Nc1cc(N)nc(N)n1 |  |  |  |  | 250 |  |  | 
O=C(CCl)c1ccccc1 | 247 |  |  | -2.27 | 56.5 |  |  | 
O=C(c1cc(O)c(O)c(O)c1)c1ccc(O)c(O)c1O |  |  |  |  | 270 |  |  | 
CCCC(O)C(=O)O (centres undefined) |  |  |  |  | 34 |  |  | 
COC(=O)c1ccco1 | 181 |  |  |  |  |  |  | 
CC(C)COS(=O)OCC(C)C | 210 |  |  |  |  |  |  | 
C[C@@H]1O[C@@H](O)[C@H](O)[C@H](O)[C@H]1O |  |  |  |  | 140 |  |  | 
CN(C)c1cccc2c(S(=O)(=O)Cl)cccc12 |  |  |  |  | 70 |  |  | 
C[C@@H](N)c1ccccc1 |  |  |  |  |  | not readily biodegradable |  | 
CC(Cl)c1ccccc1 (centres undefined) |  |  |  | -0.187 |  |  |  | 

SMILES | boiling point [°C] | log10 Henry constant (atm·m³/mol) | log10 Koa | log10 vapour pressure (mmHg) | melting point [°C] | ready biodegradability | log10 biodegradation half-life (days) | log10 Koc (L/kg)
CCC(C)Cc1ccccc1 (centres undefined) | 195 |  |  |  |  |  |  | 
COC(=O)c1ccccc1C(=O)OC | 284 |  |  | -2.51 | 5.5 | readily biodegradable |  | 1.6
Clc1cc(Cl)c(Cl)c(-c2ccc(Cl)c(Cl)c2Cl)c1 |  | -4.43 |  |  |  |  |  | 
CNC(=O)Oc1ccc2c(c1)[C@]1(C)CCO[C@@H]1N2C |  |  |  |  | 124 |  |  | 
CCOC(=O)N(c1ccccc1)c1ccccc1 | 360 |  |  |  | 72 |  |  | 
COc1ccccc1OC(=O)Oc1ccccc1OC |  |  |  |  | 89 |  |  | 
CCOP(=S)(OCC)Oc1cc(C)nc(C(C)C)n1 |  | -6.95 |  | -4.05 |  | not readily biodegradable |  | 2.75
NC(N)=O.O=P(O)(O)O |  |  |  |  | 120 |  |  | 
ClCCC(Cl)Cl | 146 |  |  |  | -59 |  |  | 
N#CC(C#N)=C1c2cc([N+](=O)[O-])ccc2-c2c1cc([N+](=O)[O-])cc2[N+](=O)[O-] |  |  |  |  | 267 |  |  | 
CCOc1ccc(CC(=O)O)cc1 |  |  |  |  | 88.5 |  |  | 
O=C(O)C(Cl)CCl (centres undefined) | 210 |  |  |  | 50 |  |  | 
CCN(C)CC | 66 |  |  |  | -196 |  |  | 
CC1CC(O)CC(C)(C)C1 (centres undefined) | 196 |  |  |  | 46.5 |  |  | 
CC1OCCO1 | 81.5 |  |  |  |  |  |  | 
CC(C)CNCC(C)C | 140 |  |  | 0.862 | -73.5 | readily biodegradable |  | 
CCCOP(=O)(OCCC)Oc1ccc(SC)cc1 |  |  |  | -6.05 |  |  |  | 
CCCCN(CCCC)c1ccccc1 | 275 |  |  |  | -32.2 |  |  | 
CCC(CC)Nc1c([N+](=O)[O-])cc(C)c(C)c1[N+](=O)[O-] | 330 |  |  | -4.52 | 56 |  |  | 3.7
Cc1cc(C)c(C(=O)O)c(C)c1 |  |  |  |  | 154 |  |  | 
CCCC(C)(C)CC | 112 |  |  | 1.46 | -126 |  | 0.699 | 
NC(=O)NNc1ccccc1 |  |  |  |  | 172 |  |  | 

SMILES | boiling point [°C] | log10 Henry constant (atm·m³/mol) | log10 Koa | log10 vapour pressure (mmHg) | melting point [°C] | ready biodegradability | log10 biodegradation half-life (days) | log10 Koc (L/kg)
BrCCCCCBr | 222 |  |  |  | -39.5 |  |  | 
Cn1c([N+](=O)[O-])cnc1COC(N)=O |  |  |  |  | 168 |  |  | 
CC(O)COC(C)COC(C)CO (centres undefined) |  |  |  |  |  | not readily biodegradable |  | 
CN1CC[C@]23c4c5ccc(O)c4O[C@H]2C(=O)CC[C@@]3(O)[C@H]1C5 |  |  |  |  | 248 |  |  | 
O=[N+]([O-])c1cc(Cl)c(Cl)c(Cl)c1 |  |  |  |  | 72.5 |  |  | 
CCC(C)(O)CC | 122 |  |  | 0.745 | -23.6 |  |  | 
CC(C)c1ccccc1C(=O)O |  |  |  | -3.46 |  |  |  | 
O=C(Nc1ccccc1)Nc1cnns1 |  |  |  | -10.6 |  |  |  | 2.04
Nc1cccc(N)n1 | 285 |  |  |  | 122 | not readily biodegradable |  | 
Cc1ccc(C)c(C(=O)O)c1 |  |  |  |  | 132 |  |  | 
N#CCCCCCC#N |  |  |  |  | -31.4 |  |  | 
O=C1CCc2ccccc21 | 243 |  |  |  | 42 |  |  | 
CCOC(=O)CCBr | 179 |  |  |  |  |  |  | 
CC(O)CNC1CCCCC1 (centres undefined) |  |  |  | -1.8 |  |  |  | 
CCc1ccc(Cl)cc1 | 184 |  |  |  | -62.6 |  |  | 
Cc1ccc(C(=O)c2ccccc2C(=O)O)cc1 |  |  |  |  | 146 |  |  | 
CC(C)=C1OC(=O)C1(C)C | 170 |  |  |  | -18 |  |  | 
C#CC(O)(CC)CC | 138 |  |  |  |  |  |  | 
C1CCC(CCCCC2CCCCC2)CC1 | 305 |  |  |  | 12 |  |  | 
CN(C)c1ccccn1 | 196 |  |  |  | 182 |  |  | 
COCOC | 42 | -3.76 |  | 2.6 | -105 |  |  | 
CC(=O)[O-].[K+] |  |  |  |  | 292 |  |  | 

SMILES | boiling point [°C] | log10 Henry constant (atm·m³/mol) | log10 Koa | log10 vapour pressure (mmHg) | melting point [°C] | ready biodegradability | log10 biodegradation half-life (days) | log10 Koc (L/kg)
O=[N+]([O-])c1cccc(CCl)c1 |  |  |  |  | 46 |  |  | 
COC(=O)c1cc(Cl)ccc1N |  |  |  |  | 67 |  |  | 
FC(F)(F)C(Cl)(Cl)C(Cl)(Cl)C(F)(F)F | 131 |  |  |  | 83.5 |  |  | 
CC(=O)n1ccnc1 |  |  |  |  | 102 |  |  | 
Nc1ccc(-c2ccc(N)cc2)cc1 | 401 |  |  |  | 120 |  |  | 3.46
Nc1ccc(Cc2ccc(N)cc2)cc1 | 398 |  |  |  | 92.5 | not readily biodegradable |  | 1.99
CCC(C(C)=O)C(C)=O | 178 |  |  |  |  |  |  | 
Cc1cc(Cl)cc([N+](=O)[O-])c1 |  |  |  |  | 61 |  |  | 
CCC(C)CC(CC)CC (centres undefined) | 158 |  |  |  |  |  |  | 
CCCC(CC)c1ccccc1 (centres undefined) | 209 |  |  |  | -55.4 |  |  | 
Cc1ccc(Cc2ccc(C)cc2)cc1 | 286 |  |  |  | 28 |  |  | 
OCC(F)(F)F | 74 | -4.76 |  | 1.85 | -43.5 |  |  | 
c1ccc(-c2ccncc2)nc1 | 281 |  |  |  | 61.5 |  |  | 
O=C(O)c1cc2ccccc2o1 | 312 |  |  |  | 192 |  |  | 
Cc1cn([C@H]2CC[C@@H](CO)O2)c(=O)[nH]c1=O |  |  |  |  | 156 |  |  | 
O=Nc1c(O)ccc2ccccc12 |  |  |  |  | 110 |  |  | 
CCOC(=O)C(C)Oc1ccc(Oc2nc3ccc(Cl)cc3o2)cc1 (centres undefined) |  |  |  |  | 86.2 |  |  | 3.98
CCCC(C)(C)Br | 142 |  |  |  |  |  |  | 
c1ccc(Nc2cccc3ccccc23)cc1 |  |  |  |  | 62 | not readily biodegradable |  | 
CCOC(=O)C(C#N)=Cc1ccccc1 |  |  |  |  | 51 |  |  | 

same assay, conditions: fish

SMILES | log10 BCF | log10 biotransformation half-life (days)
COC(=O)c1ccccc1C(=O)c1ccccc1 | 1.15 | -1.3
CC(C)(C)c1cc(C(C)(C)C)cc(C(C)(C)C)c1 | 4.36 | 2.7
CCOP(=S)(OCC)Oc1cc(C)nc(C(C)C)n1 | 1.85 | 0.07
Nc1ccc(Cc2ccc(N)cc2)cc1 | 1.18 | 
c1ccc(Nc2cccc3ccccc23)cc1 | 3.23 | 
